Consider two compounds from US20250041296A1, “NOVEL DOSING REGIMENS FOR MDM2 INHIBITORS” (NOVARTIS AG, priority 2018, published 2025).

Data set [1] has as its system solid and hematological tumors. As to conditions: versus original day 1 to day 7 regimen of a 28-day cycle; cited from earlier work.
A further data set deals with R/R AML subjects. Nature of the data set: Clinical study CHDM201X2101, single agent HDM201. It counts as in vivo, human. The protocol: HDM201 is a novel investigational agent with promising single-agent activity in AML patients. Study CHDM201X2101 investigated several dose regimens of single agent HDM201 in R/R AML subjects. CR/CRi rate of 24% was reported in subjects with R/R AML who received oral HDM201 at a dose of 45 mg from D1 to D7 every 4 weeks (Q4W) (Regimen 2C), which was the dose assessed as recommended dose for expansion (RDE).
The starting dose and regimen selection for HDM201 in dose escalation is based on the previous Phase I dose escalation and expansion study of HDM201 as a single-agent in subjects with R/R AML ([HDM201X2101]). In this Phase I study, HDM201 was investigated in subjects with solid tumors and hematological malignancies. A total of 27 subjects with hematological malignancies (26 AML and one acute lymphoblastic leukemia (ALL)) have been enrolled across various regimens. […] According to HDM201X2101, Regimen 2C was determined to be the recommended Phase 2 dose (RP2D) for further development of HDM201 as a single-agent.
With this regimen, the RD has been determined as 45 mg HDM201 in hematological tumors in the CHDM201X2101 study. […] Proceedings of the American Association for Cancer Research Annual Meeting 2017; 2017 Apr. 1-5; Washington, DC. Philadelphia (PA): AACR; Cancer Res 2017; 77(13 Suppl):Abstract nr CT154. doi:10.1158/1538-7445.AM2017-CT154).

Another data set relates to p53. As to conditions: preclinical cell and in vivo models; cited from earlier work.
Data set [2] in a line: Population PK/PD model parameter estimates (NLME, Monolix) from the CHDM201X2101 dataset. Set-up: species or system human. As to conditions: method=FIXED. The source says:
For model building the PK/PD dataset of CHDM201X2101 were used and an NLME estimation (Monolix 4.3.2) performed. The model structure and the parameter estimates are provided below. This provided inputs for R/shiny. The m/xR package were used for simulation of longitudinal data from the MLXTRAN model.

For a further data set, the system named is solid tumor subjects. Nature of the data set: Clinical study CMBG453X2101, MBG453 single agent. It counts as in vivo, human. As to conditions: any dose up to 1200 mg Q2W or Q4W. The protocol: (§1) The MBG453 single agent RD has been determined as 800 mg Q4W in solid tumor subjects primarily based on PK and PKPD modeling of target (TIM-3) occupancy. MBG453 at the dose level of 800 mg Q4W was predicted to give sustained target occupancy of 90% in tumor in >90% of subjects. […] MBG453 single agent is also being evaluated in AML/MDS subjects in the CPDR001X2105 study with Q4W and Q2W regimens.

A further data set relates to AML/MDS subjects. Nature of the data set: Clinical study CPDR001X2105, MBG453 single agent. Type of data set: in vivo, human. Particulars: 400 mg Q2W and 800 mg Q4W. On the procedure:
as §1
The RD in AML/MDS has not yet been determined, however it is not expected to be different from solid tumors, based on preliminary PK and safety data.

Where [3] appears, read: R/R AML subjects, single agent HDM201.
Setting [4] is: subjects treated at RDE (Regimen 2C: 45 mg D1 to D7 Q4W).

`COc1ncc(-c2nc3c(n2C(C)C)[C@H](c2ccc(Cl)cc2)N(c2cc(Cl)cn(C)c2=O)C3=O)c(OC)n1` [HDM201, (S)-5-(5-Chloro-1-methyl-2-oxo-1,2-dihydro-pyridin-3-yl)-6-(4-chloro-phenyl)-2-(2,4-dimethoxy-pyrimidin-5-yl)-1-isopropyl-5,6-dihydro-1H-pyrrolo[3,4-d]imidazol-4-one]: in data set [1], the “anti-tumor activity when administration is shortened to 5 consecutive days” value is on record as “relevant anti-tumor activity”. Also, the “most common grade 3/4 AE reported as suspected to study treatment” value in the data set on R/R AML subjects (27 subjects with hematological malignancies across various regimens) was “thrombocytopenia, neutropenia, anemia and Tumor Lysis Syndrome (TLS)”. Moreover, in the data set on R/R AML subjects (R/R AML subjects, oral 45 mg D1 to D7 Q4W (Regimen 2C)), the CR/CRi rate was determined as 24%. Also, in the data set with R/R AML subjects (setting [3]), the duration of responses result is “up to 152 days” and the “time at which response was seen” value is given as “within the first two cycles”. In addition, in the data set on R/R AML subjects (setting [4]), the “gastro-intestinal AEs, grade” value is “only low grade” and the “tumor lysis syndrome (TLS) Grade 3 or 4” value is “about 10%”. The “effect on p53 function” value in the data set with p53 is given as “restore p53 function”. Also, in data set [2], the pop_Cl result is “pop_Cl = 6.18 [method=FIXED],”, the pop_V result was “pop_V = 119 [method=FIXED],” and the pop_ka result was “pop_ka = 0.489 [method=FIXED],”.
Take “MBG453: TIM-3 inhibitor MBG453 (Novartis), given by i.v. infusion”: the safety signal entry in the data set with solid tumor subjects is given as “No significant safety signal”. Also, the tolerability entry in the data set with AML/MDS subjects is recorded as “well tolerated”.
